The inhibition is the relative decrease from the control value, in per cent. In general, IC50 refers to the concentration at which inhibition is half-maximal. The low end stands for higher potency, the high end for lower potency.

Drawing on patent US20090209492A1, “Lipase Inhibitors” (TRUSTEES OF TUFTS COLLEGE, priority 2004, published 2009), this text covers inhibition and IC50 for 17 molecules.

The assay addresses T1, endothelial lipase (Homo sapiens, UniProt Q9Y5X9).
T1 sequence (Q9Y5X9 21-500): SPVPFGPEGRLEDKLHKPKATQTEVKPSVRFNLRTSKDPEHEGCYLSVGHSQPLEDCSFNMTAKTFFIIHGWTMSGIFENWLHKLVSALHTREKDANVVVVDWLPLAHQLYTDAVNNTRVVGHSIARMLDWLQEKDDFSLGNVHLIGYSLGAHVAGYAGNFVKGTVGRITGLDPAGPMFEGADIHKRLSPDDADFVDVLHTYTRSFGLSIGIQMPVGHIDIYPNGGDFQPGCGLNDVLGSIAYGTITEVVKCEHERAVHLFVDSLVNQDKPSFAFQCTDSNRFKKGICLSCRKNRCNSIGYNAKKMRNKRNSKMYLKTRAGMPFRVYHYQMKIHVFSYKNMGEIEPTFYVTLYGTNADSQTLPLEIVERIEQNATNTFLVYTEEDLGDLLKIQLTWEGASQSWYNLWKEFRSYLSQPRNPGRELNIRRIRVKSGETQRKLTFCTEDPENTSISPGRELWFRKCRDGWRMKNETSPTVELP
The experiment in a line: Endothelial lipase inhibiting activity of boronic acids. It counts as biochemical. The conditions noted are these: for inhibition at 50 µM: 50 micromolar solution of each compound; for IC50: endothelial lipase. Here is the method:
The endothelial lipase inhibiting activity of various aliphatic boronic acids was tested.
The endothelial lipase inhibiting activity of various aromatic boronic acids was tested.

On to `CCCCCCCCCCCCCCB(O)O`, for which, under “aliphatic boronic acids”, the inhibition at 50 µM was 89% and the half-maximal inhibitory concentration (IC50) is 1 µM.

Where the note is “aliphatic boronic acids”, `CCCCCCCCCCCCCCCB(O)O` displayed an inhibition at 50 µM of 90%.

Under “aliphatic boronic acids”, `CCCCCCCCCCCCCCCCB(O)O` registered an inhibition at 50 µM of 62%.

With `C=CCCCB(O)O`, under “aliphatic boronic acids”, the inhibition at 50 µM was determined as 72% and the IC50 came to 26 µM.

`CCCCCB(O)O` gave an inhibition at 50 µM (aliphatic boronic acids) of 42%.

Consider `CCCCCCB(O)O`, for which the inhibition at 50 µM (aliphatic boronic acids) stood at 53%.

As to `CCCCC/C=C/B(O)O`, the inhibition at 50 µM (aliphatic boronic acids) was 63%.

In turn, `CCCCCC/C=C/B(O)O` showed an inhibition at 50 µM (aliphatic boronic acids) of 77%.

As for `CCCCCCC/C=C/B(O)O`, at 50 µM the inhibition (aliphatic boronic acids) was 82%.

Molecule `CC(C)CB(O)O` registered an inhibition at 50 µM (aliphatic boronic acids) of 9%.

Under “aromatic boronic acids”, `CC(=O)c1ccc(B(O)O)cc1` gave an inhibition at 50 µM of 80% and an IC50 of 26 µM.

For `CCc1ccc(B(O)O)cc1`, under “aromatic boronic acids”, 50 µM produced 83% inhibition and the IC50 amounted to 11 µM.

For the setting “aromatic boronic acids”, `Cc1ccc(B(O)O)cc1` registered an inhibition at 50 µM of 88% and an IC50 of 17 µM.

Under “aromatic boronic acids”, `O=Cc1ccc(B(O)O)cc1` registered an inhibition at 50 µM of 60%.

Take `OB(O)Cc1ccccc1`: the inhibition at 50 µM (aromatic boronic acids) worked out at 10%.

For the setting “aromatic boronic acids”, `OB(O)C1CCCCC1` came in with an inhibition at 50 µM of 1%.

Turning to `OB(O)C1CCCC1`, 50 µM produced 7% inhibition (aromatic boronic acids).
